{"source": "patent EP1082958A2", "about": "“5-HT1F agonists in chronic pain” (ELI LILLY AND COMPANY, priority 1996, dated 1998)", "key": {"[1]": {"tested_on": "neuronal protein extravasation", "assay": "Protein extravasation after electrical stimulation of the trigeminal ganglion (Evans Blue in dura)", "assay_type": "in vivo, Harlan Sprague-Dawley rats or guinea pigs", "conditions": "10 minutes before stimulation of the left trigeminal ganglion, dose inhibiting extravasation by 50%, approximated from dose-response curve, rats or guinea pigs (species not given)", "method": "Harlan Sprague-Dawley rats (225-325 g) or guinea pigs from Charles River Laboratories (225-325 g) were anesthetized with sodium pentobarbital intraperitoneally (65 mg/kg or 45 mg/kg respectively) and placed in a stereotaxic frame (David Kopf Instruments) with the incisor bar set at - 3.5 mm for rats or -4.0 mm for guinea pigs. Following a midline sagital scalp incision, two pairs of bilateral holes were drilled through the skull (6 mm posteriorly, 2.0 and 4.0 mm laterally in rats; 4 mm posteriorly and 3.2 and 5.2 mm laterally in guinea pigs, all coordinates referenced to bregma). Pairs of stainless steel stimulating electrodes (Rhodes Medical Systems, Inc.) were lowered through the holes in both hemispheres to a depth of 9 mm (rats) or 10.5 mm (guinea pigs) from dura.\nThe femoral vein was exposed and a dose of the test compound was injected intravenously (1 mL/kg). Approximately 7 minutes later, a 50 mg/kg dose of Evans Blue, a fluorescent dye, was also injected intravenously. The Evans Blue complexed with proteins in the blood and functioned as a marker for protein extravasation. Exactly 10 minutes post-injection of the test compound, the left trigeminal ganglion was stimulated for 3 minutes at a current intensity of 1.0 mA (5 Hz, 4 msec duration) with a Model 273 potentiostat/ galvanostat (EG&G Princeton Applied Research).\nFifteen minutes following stimulation, the animals were killed and exsanguinated with 20 mL of saline. The top of the skull was removed to facilitate the collection of the dural membranes. The membrane samples were removed from both hemispheres, rinsed with water, and spread flat on microscopic slides. Once dried, the tissues were coverslipped with a 70% glycerol/water solution.\nA fluorescence microscope (Zeiss) equipped with a grating monochromator and a spectrophotometer was used to quantify the amount of Evans Blue dye in each sample. An excitation wavelength of approximately 535 nm was utilized and the emission intensity at 600 nm was determined. The microscope was equipped with a motorized stage and also interfaced with a personal computer. This facilitated the computer-controlled movement of the stage with fluorescence measurements at 25 points (500 µm steps) on each dural sample. The mean and standard deviation of the measurements was determined by the computer.\nThe extravasation induced by the electrical stimulation of the trigeminal ganglion was an ipsilateral effect (i.e. occurs only on the side of the dura in which the trigeminal ganglion was stimulated). This allows the other (unstimulated) half of the dura to be used as a control. The ratio of the amount of extravasation in the dura from the stimulated side compared to the unstimulated side dura was calculated. […]"}, "5-HT1E": {"target": "T1, 5-HT1E (Homo sapiens, UniProt P28566)", "T1 construct": "expressed in transfected cells; host or cells: transfected Ltk- cells (by analogy 'as described supra')", "T1 sequence (P28566 whole entry, species assumed)": "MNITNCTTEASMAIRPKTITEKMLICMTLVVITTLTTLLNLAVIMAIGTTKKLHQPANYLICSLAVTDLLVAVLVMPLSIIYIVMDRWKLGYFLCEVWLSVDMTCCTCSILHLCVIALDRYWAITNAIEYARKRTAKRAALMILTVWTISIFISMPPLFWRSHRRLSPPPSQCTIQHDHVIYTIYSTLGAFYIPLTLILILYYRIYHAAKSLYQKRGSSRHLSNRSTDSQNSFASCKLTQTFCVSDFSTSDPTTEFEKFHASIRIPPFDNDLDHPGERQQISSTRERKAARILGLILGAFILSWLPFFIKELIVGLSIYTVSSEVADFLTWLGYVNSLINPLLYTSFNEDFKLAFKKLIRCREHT", "assay": "Radioligand binding ([3H]5-HT displacement) to cloned 5-HT1E receptor", "conditions": "read-out: BINDING TO SEROTONIN (5-HT1) RECEPTOR SUBTYPES (Ki-nM) 5-HT1E, 4.5-5.5 nM [3H]5-HT, 37°C, Ki from IC50 by Cheng-Prusoff", "method": "Membrane Preparation: Membranes were prepared from transfected Ltk- cells which were grown to 100% confluency. The cells were washed twice with phosphate-buffered saline, scraped from the culture dishes into 5 mL of ice-cold phosphate-buffered saline, and centrifuged at 200 x g for 5 minutes ^at 4°C. The pellet was resuspended in 2.5 mL of ice-cold Tris buffer (20 mM Tris HCl, pH=7.4 a^t […]) and homogenized with a Wheaton tissue grinder. The lysate was subsequently centrifuged at 200 x g for 5 minutes at 4°C to pellet large fragments which were discarded. The supernatant was collected and centrifuged at 40,000 x g for 20 minutes at 4°C. […] Protein concentrations were determined by the method of Bradford (Anal. Biochem., 72, 248-254 (1976)).\nRadioligand Binding: [^3H-5-HT] binding was performed using slight modifications of the 5-HT1D assay conditions reported by Herrick-Davis and Titeler (J. Neurochem., 50, 1624-1631 (1988)) with the omission of masking ligands. […] Incubation times were 30 minutes for both saturation and displacement studies based upon initial investigations which determined equilibrium binding conditions. […] Binding data was analyzed by computer-assisted nonlinear regression analysis (Accufit and Accucomp, Lunden Software, Chagrin Falls, OH). […]"}}}
{"smiles": "O=C(O)C(=O)O.Oc1ccc2[nH]cc(C3CCNCC3)c2c1", "note": "[Compound III, 5-hydroxy-3-(4-piperidinyl)-1H-indole oxalate]", "values": [{"measurement": "Inhibition of Protein Extravasation, i.v. ID50", "setting": "[1]", "result": "8.9e-09", "unit": "mmol/kg"}]}
{"smiles": "CNS(=O)(=O)Cc1ccc2[nH]cc(CCN(C)C)c2c1.O=C(O)CCC(=O)O", "note": "[Compound I, 3-[2-(dimethylamino)ethyl]-N-methyl-1H-indole-5-methanesulfonamide butane-1,4-dioate (1:1)]", "values": [{"measurement": "Ki", "setting": "5-HT1E", "result": 2520, "unit": "nM"}, {"measurement": "Inhibition of Protein Extravasation, i.v. ID50", "setting": "[1]", "result": "2.6e-08", "unit": "mmol/kg"}]}
{"smiles": "CCN(CC)C1CCc2cccc(Cl)c2C1.Cl", "note": "(centres unmarked) [Compound IV, 8-chloro-2-diethylamino-1,2,3,4-tetrahydronaphthalene hydrochloride]", "values": [{"measurement": "Inhibition of Protein Extravasation, i.v. ID50", "setting": "[1]", "result": "1.2e-07", "unit": "mmol/kg"}]}
{"smiles": "CN(C)C1CCc2[nH]c3ccc(O)cc3c2C1", "note": "(centres unmarked) [Compound V, 6-hydroxy-3-dimethylamino-1,2,3,4-tetrahydrocarbazole]", "values": [{"measurement": "Inhibition of Protein Extravasation, i.v. ID50", "setting": "[1]", "result": "8.7e-09", "unit": "mmol/kg"}]}
